Data on 4 molecules can be found in article PMC8297771 (PLoS Pathogens, 2021).

Like-named read-outs stand apart in the source and are kept apart here. A value given as a limit tells only on which side of the number the result lay.

The test system of series [1] is HIV-1_89.6. Briefly: In vitro anti-viral assay in CEMx174 cells (p24). The class given is cell-based. The conditions noted are these: HIV-1 89.6 / CEMx174 cells; read-out: IC50. The method, then: (§1) CEMx174 cells were infected with HIV-1 primary isolate 89.6 (From infectious clone p89.6, NIH AIDS Reagent Program) at approximately at 10% of cell population determined by FACS analyses. To determine antiviral activity during virus production, STP0404 was added at concentration in the range of 0.1 nM—10 μM during media exchange at 4 hrs post-infection. DMSO was used as a negative control. Cell-free supernatants were measured for p24 antigen production, 5 days post-infection. The anti-HIV-1 efficacy of the two enantiomers of STP0404 were also determined by using the same protocol. All assays were conducted in triplicates. The IC50 values were computed using GraphPad Prism (Version 9) and presented as means ± S.D. of the triplicates. For SIVmac239, CEMx174 cells were infected with viral supernatant containing SIVmac293 at 50,000 TCID50/mL (kind gift from Dr. G. Silvestri, Emory Yerkes National Primate Research Center) with 100 μL/10^6 cells at varying concentrations of STP0404, BI224436, and Raltegravir, and the same above protocol was followed except for that p27 capsid antigen content was measured daily for 5 days post infection.

The test system of series [2] is HIV-1 NL4-3. Put plainly: In vitro anti-viral assay in MT4 cells. Type of series: cell-based.
Series [3] relates to Ral-resistant (1556_1) clinical isolate. Put plainly: In vitro anti-viral assay in human PBMCs (RT activity readout). Type of series: cell-based, HIV-1. The method, then: (§2) For the assay with human PBMCs, PHA stimulated cells from at least two pooled healthy were infected with HIV-1 strains in 96-well plates. Test drug dilutions, which were prepared at a 2X concentration in microtiter tubes and 100 μL of each concentration (nine total concentrations), were placed in appropriate wells using the standard format. 50 μL of a predetermined dilution of virus stock was placed in each test well (final MOI ≅ 0.1). The PBMC cultures were maintained for 7 days following infection at 37 °C, 5% CO2. After this period, cell-free supernatant samples were collected for analysis of reverse transcriptase (RT) activity. All assays were conducted in triplicates. For RT assay, a microtiter plate-based reverse transcriptase (RT) reaction was utilized (Buckheit et al., AIDS Research and Human Retroviruses 7:295–302, 1991). Tritiated thymidine triphosphate (^3H-TTP, 80 Ci/mmol, NEN) is received in 1:1 dH2O: Ethanol at 1 mCi/mL. Poly rA:oligo dT template:primer (GE Healthcare) was prepared as a stock solution by combining 150 μL poly rA (20 mg/mL) with 0.5 mL oligo dT (20 units/mL) and 5.35 mL sterile dH2O followed by aliquoting (1.0 mL) and storage at—20°C. The RT reaction buffer was prepared fresh on a daily basis and consisted of 125 μL 1.0 M EGTA, 125 μL dH2O, 125 μL 20% Triton X100, 50 μL 1.0 M Tris (pH 7.4), 50 μL 1.0 M DTT, and 40 μL 1.0 M MgCl2. The final reaction mixture was prepared by combining 1 part ^3H-TTP, 4 parts dH2O, 2.5 parts poly rA:oligo dT stock and 2.5 parts reaction buffer. Ten microliters of this reaction mixture were placed in a round bottom microtiter plate and 15 μL of virus containing supernatant is added and mixed. The plate was incubated at 37°C for 60 mins. Following incubation, the reaction volume was spotted onto DE81 filter-mats (Wallac), washed 5 times for 5 mins each in a 5% sodium phosphate buffer or 2X SSC (Life Technologies). Next they were washed 2 times for 1 min each in distilled water, 2 times for 1 min each in 70% ethanol, and then dried. Incorporated radioactivity (counts per min, CPM) was quantified using standard liquid scintillation techniques. These PBMC analysis was conducted by fee to service through Southern Research Institute (Frederick, MD, USA). The IC50 were analyzed using GraphPad Prism (Version 9) and presented as means ± S.D. of the triplicates.

Series [4] has as its system Ral-resistant (8070_2) clinical isolate. The description is as above. Type of series: cell-based, HIV-1. The method, then: as §2
Series [5] deals with Ral-resistant (4736_4) clinical isolate. The series is described as above. Type of series: cell-based, HIV-1. As to the method:
as §2

Series [6] has as its system Ral-resistant (8070_1) clinical isolate. The description is as above. Type of series: cell-based, HIV-1. The conditions noted are these: for TI (TC50 / IC50): human PBMCs, Ral-resistant (8070_1). As to the method: as §2
In series [7] the test system is Ral-resistant (4736_2) clinical isolate. The series is described as above. Type of series: cell-based, HIV-1. The method, then: as §2
The subject of series [8] is HIV-1NL4-3. The series is described as above. The note with it: for TI (TC50 / IC50): minimal TI from IC50 and 10 μM. The class given is cell-based. As to the method: as §2
The test system of series [9] is MT4 cells. Briefly: Tissue culture cytotoxicity measurement in MT4 cells. The class given is cell-based. From the text: Fig 1 ALLINI structures and STP0404 activities. […] Pyridine-based KF116, D. Pyrrolopyridine-based STP0404. The conserved chemical moiety containing tert-butoxy and carboxylic acid groups are marked by “]”.
Series [10] has as its system human PBMCs. Briefly: Tissue culture cytotoxicity measurement in human PBMCs. The conditions noted are these: human PBMCs. Type of series: cell-based. An excerpt:
Multiple chemical scaffolds such as quinoline (BI224436, Fig 1A), benzothiazole (GS-9822, Fig 1B) and pyridine (KF116, Fig 1C) were previously explored for the discovery of ALLINIs. Here, we employed the pyrrolopyridine-based scaffold to synthesize an ALLINI candidate compound, STP0404 (Fig 1D). STP0404 harbors the tert-butoxy moiety that is common to other ALLINIs (Fig 1). First, we measured its in vitro anti-HIV-1 efficacy and cytotoxicity using various HIV-1 strains in multiple cell types, with cytotoxicity initially tested up to 10 μM (Table 1). […] The calculated in vitro minimum therapeutic index (TI) of STP0404 under these conditions was accordingly >25,000. For comparison, we employed two FDA-approved HIV-1 inhibitors, AZT (RT inhibitor) and Raltegravir (Ral, INSTI), alongside 5 different Ral-resistant clinical isolates (Table 1).

In series [11] the test system is HIV-1_89.6 passage 14 viral population (Y99H and A128T). Briefly: Susceptibility of STP0404-selected viral population, passage 14, in CEMx174 cells. The conditions noted are these: passage 14 viral population (Y99H and A128T) vs wild type HIV-1_89.6. The class given is cell-based. The method, then: CEM x174 cells infected with HIV primary isolate 89.6 were cultured in the presence of STP0404 at the concentration of IC90 determined earlier. At each passage, cells from original culture in the presence of inhibitor (0.75x10^6 cells) were mixed with equal amount of no-drug control cells to propagate, and viral replication was monitored by the production of p24 antigen in the supernatant. […] The population of drug-induced mutations at each passage mentioned above was determined by sequencing of at least 10 resulting transformants.
CEM x174 cells were infected with cell-free viral supernatant collected during virus resistance assays above. […] The viral stocks were normalized by the amount of p24 capsid antigen, determined to infect CEMx174 cells at approximately 10% of populations (10,000 pg / 10^6 cells). […] Cell-free supernatants were measured for p24 antigen production 5 days post-infection. p89.6 plasmid was applied for Quickchange kit (Invitrogen) to create Y99H single, A128T single, Y99H/A128T double mutants as well as two natural variants (A124N and T125A), and these 89.6 variant viruses were generated by transfecting 293T cells and culturing the produced viruses in CEMx174 cells. The IC50 of STP0404 against respective viruses were analyzed using GraphPad Prism (Version 9) and presented as means ± S.D. of triplicates. […]

Series [12] relates to SIVmac239. Briefly: In vitro efficacy test against SIVmac239 in CEMx174 cells (p27). Type of series: cell-based, SIV. The conditions noted are these: p27 assay. As to the method: as §1, with “The IC50 values were computed using GraphPad Prism (Version 9) and presented as means ± S.D. of the triplicates.” left out
Supplementary file ppat.1009671.s004.tiff: S1 Fig In vitro efficacy tests of STP0404, BI224436 and Raltegravir against SIVmac239 in CEMx174 cell culture. CEMx174 cells were infected with SIVmac239 with various concentrations of STP0404, BI224436, and Raltegravir, and the viral production was determined by p27 assay at 5 days post infection. […]

[13] abbreviates: column under Ral-resistant (1556_1).
Where [14] appears, read: column under Ral-resistant (4736_2).
[15] abbreviates: column under Ral-resistant (4736_4).
Setting [16] is: column under Ral-resistant (8070_1).
Setting [17] is: column under Ral-resistant (8070_2).
The mark [18] stands for this setting: Human immunodeficiency virus 1, PBMC.

Take `Cc1nc2c(c(C)c(C)n2Cc2cnn(C)c2)c(-c2ccc(Cl)cc2)c1[C@H](OC(C)(C)C)C(=O)O` [(S) form]: in series [1], the IC50 (as a rule, the concentration that inhibits the measured activity by half) amounted to 1.3 nM.

With `Cc1cn([C@H]2C[C@H](N=[N+]=[N-])[C@@H](CO)O2)c(=O)[nH]c1=O` [AZT], the “TI (TC50 / IC50)” value is listed as > 179 in series [2] (HIV-1 NL4-3 / MT4 cells); >1,000 in [3]; >125 in series [4]; >1,490 in series [6]; >23,000 in [7] (human PBMCs, Ral-resistant (4736_2)); >1,121 in [8] (human PBMCs, NL4-3). Further, the half-inhibitory concentration (IC50) in series [2] (HIV-1 NL4-3 / MT4 cells, read-out: IC50) is 56 ± 23.5 nM; in [3], 9.33 ± 0.22 nM; in [4] it was 79.9 ± 11.8 nM; in series [5] (human PBMCs, Ral-resistant (4736_4), read-out: IC50), 6.71 ± 5.74 nM; in series [7] (human PBMCs, Ral-resistant (4736_2), read-out: IC50) it was 0.42 ± 0.37 nM; in [8] (human PBMCs, NL4-3, mean of triplicates ± SD, read-out: IC50) it was 8.92 ± 2.08 nM. In addition, the TC50 in series [9] is recorded as > 10,000 nM; in series [10] (NL4-3, tested up to 10 μM), >10,000 nM; in series [10] (setting [13]) it was >10,000 nM; in [10] (setting [14]) it was >10,000 nM; in series [10] (setting [15]), >10,000 nM; in series [10] (setting [16]), >10,000 nM. Besides, in [10] (setting [17]), the TC50 is listed as >10,000 nM.

`Cc1nc2ccccc2c(-c2ccc3c4c(ccnc24)CCO3)c1[C@H](OC(C)(C)C)C(=O)O` [BI224436, reference compound] came in with an IC50 fold increase in [11] of 40.5 fold. Further, the “inhibition of SIVmac239” value in series [12] is recorded as “failed to inhibit”.

On to `Cc1nnc(C(=O)NC(C)(C)c2nc(C(=O)NCc3ccc(F)cc3)c(O)c(=O)n2C)o1` [Raltegravir], for which the “TI (TC50 / IC50)” value in [2] (HIV-1 NL4-3 / MT4 cells) is given as > 2,710; in [3], ~20; in series [4], ~100; in [5] (human PBMCs, Ral-resistant (4736_4)), >270; in series [6], ~10; in series [8] (human PBMCs, NL4-3) it was >22,700. In addition, the IC50 in series [2] (Human immunodeficiency virus 1, NL43, MT4) is 3.69 ± 2.8 nM; in [3] (setting [18]) it was > 500 nM; in [4] (setting [18]) it was > 100 nM; in [5] (setting [18]) it was 36.5 ± 53.6 nM; in [6] (setting [18]) it was > 1000 nM; in [7] (setting [18]) it was > 50 nM. This molecule also registered a half-inhibitory concentration (IC50) in series [8] (Human immunodeficiency virus 1, NL43, PBMC) of 0.44 ± 0.74 nM. Besides, the TC50 is listed as > 10,000 nM in series [9]; >10,000 nM in series [10] (NL4-3, tested up to 10 μM); >10,000 nM in series [10] (setting [13]); >10,000 nM in series [10] (setting [14]); >10,000 nM in series [10] (setting [15]); >10,000 nM in series [10] (setting [16]). The TC50 in series [10] (setting [17]) is given as >10,000 nM.
